Experimental data from paper PMC11503540, “Development of a pharmacological evidence‐based anticholinergic burden scale for medications commonly used in older adults” (Geriatrics & Gerontology International, 2023).

Target: T1, muscarinic receptor (rat brain)
T1 construct: gene Chrm1; native receptors in particulate (40 000 g pellet) preparation of whole brain without cerebellum; subtype mixture not resolved
Assay: [3H]NMS displacement, rat brain membranes, filtration
Type: binding
Conditions: [3H]NMS 0.3 nM (0.5 nM in data analysis), 30 mM Na+/HEPES pH 7.5, 25 °C, 60 min; competitive
Description: [3H]NMS displacement, rat brain membranes, filtration on muscarinic receptor (rat brain)

SMILES | IC50 [µM]
COc1cc(O)c(C(=O)Nc2nc(C(=O)NCCN(C(C)C)C(C)C)cs2)cc1OC [Acotiamide] | 44.2
Cn1c(=O)cc(N2CCC[C@@H](N)C2)n(Cc2ccccc2C#N)c1=O [Alogliptin] | 81.5
CN(C)CCC=C1c2ccccc2CCc2ccccc21 [Amitriptyline] | 0.0293
CC(C)COCC(CN(Cc1ccccc1)c1ccccc1)N1CCCC1 (stereo not drawn) [Bepridil] | 20.8
OC(CCN1CCCCC1)(c1ccccc1)C1CC2C=CC1C2 (stereo not drawn) [Biperiden] | 0.0105
CN(C)CCC(c1ccc(Cl)cc1)c1ccccn1 (stereo not drawn) [Chlorpheniramine] | 5.1
CN(C)CCCN1c2ccccc2Sc2ccc(Cl)cc21 [Chlorpromazine] | 0.376
Clc1ccc(C(OCCN2CCCCC2)c2ccccc2)cc1 (stereo not drawn) [Cloperastine] | 0.0003
OC(CCCN1CCCCC1)(c1ccccc1)c1ccccc1 [Difenidol] | 0.325
CC(C)N(CCC(C(N)=O)(c1ccccc1)c1ccccn1)C(C)C (stereo not drawn) [Disopyramide] | 5.99
CN(CCCCCCN(C)C(=O)Oc1ccc[n+](C)c1)C(=O)Oc1ccc[n+](C)c1 [Distigmine] | 1.7
COc1cc2nc(N3CCN(C(=O)C4COc5ccccc5O4)CC3)nc(N)c2cc1OC (stereo not drawn) [Doxazosin] | 13.2
CNCC[C@H](Oc1cccc2ccccc12)c1cccs1 [Duloxetine] | 19.3
OC[C@H]1O[C@@H](c2ccc(Cl)c(Cc3ccc(O[C@H]4CCOC4)cc3)c2)[C@H](O)[C@@H](O)[C@@H]1O [Empagliflozin] | 22.1
CCc1ccc(C(=O)C(C)CN2CCCCC2)cc1 (stereo not drawn) [Eperisone] | 0.902
NC1=NCC2c3ccccc3Cc3ccccc3N12 (stereo not drawn) [Epinastine] | 26.3
CC(C)C(=O)Oc1ccc(CO)cc1[C@H](CCN(C(C)C)C(C)C)c1ccccc1 [Fesoterodine] | 0.012
Cc1c(-c2ccccc2)oc2c(C(=O)OCCN3CCCCC3)cccc2c1=O [Flavoxate] | 11.5
CCC(=O)O[C@]1(C(=O)SCF)[C@H](C)C[C@H]2[C@@H]3C[C@H](F)C4=CC(=O)C=C[C@]4(C)[C@@]3(F)[C@@H](O)C[C@@]21C [Fluticasone Propionate] | 8
C[C@@H]1C[C@H]2[C@@H]3C[C@H](F)C4=CC(=O)C=C[C@]4(C)[C@@]3(F)[C@@H](O)C[C@]2(C)[C@@]1(OC(=O)c1ccco1)C(=O)SCF [Fluticasone furoate] | 18.2
COc1ccc(CC(C)NCC(O)c2ccc(O)c(NC=O)c2)cc1 (stereo not drawn) [Formoterol] | 14.3
CN(C)CCCN1c2ccccc2CCc2ccccc21 [Imipramine] | 0.279
CCc1cc2c(cc1CC)CC(NC[C@H](O)c1ccc(O)c3[nH]c(=O)ccc13)C2 [Indacaterol] | 39.3

SMILES | IC50 [µM]
CCCC[C@H](C)C[C@H](O)/C=C/[C@H]1[C@H](O)CC(=O)[C@@H]1CCCC/C=C/C(=O)O [Limaprost] | 56.1
CC#CCn1c(N2CCC[C@@H](N)C2)nc2c1c(=O)n(Cc1nc(C)c3ccccc3n1)c(=O)n2C [Linagliptin] | 2.89
C[N+]1(C)CCCC(OC(=O)C(O)(c2ccccc2)c2ccccc2)C1 (stereo not drawn) [Mepenzolate] | 0.00306
Nc1nc(CC(=O)Nc2ccc(CCNC[C@H](O)c3ccccc3)cc2)cs1 [Mirabegron] | 6.62
CNCCC=C1c2ccccc2CCc2ccccc21 [Nortriptyline] | 0.168
OC(CCN1CCCCC1)(c1ccccc1)c1ccccc1 [Pridinol] | 0.0536
CCC(NC(C)C)C(O)c1ccc(O)c2[nH]c(=O)ccc12 (stereo not drawn) [Procaterol] | 3.9
CCCOC(C(=O)OC1CCN(C)CC1)(c1ccccc1)c1ccccc1 [Propiverine] | 0.35
COCCCOc1ccnc(C[S+]([O-])c2nc3ccccc3[nH]2)c1C (stereo not drawn) [Rabeprazole] | 18.1
Cc1cncc(CN2CCC(=C3c4ccc(Cl)cc4CCc4cccnc43)CC2)c1 [Rupatadine] | 1.51
OCc1cc(C(O)CNCCCCCCOCCCCc2ccccc2)ccc1O (stereo not drawn) [Salmeterol] | 6.1
CN1CCC2=C(C1)c1ccccc1Cc1ccccc12 [Setiptiline] | 1.97
O=C(O[C@H]1CN2CCC1CC2)N1CCc2ccccc2[C@@H]1c1ccccc1 [Solifenacin] | 0.00738
Clc1ccccc1CN1CCc2sccc2C1 [Ticlopidine] | 18
C[N+]1(C)[C@@H]2C[C@@H](OC(=O)C(O)(c3cccs3)c3cccs3)C[C@H]1[C@@H]1O[C@@H]12 [Tiotropium] | 0.00039
CC(CN(C)C)CN1c2ccccc2CCc2ccccc21 (stereo not drawn) [Trimipramine] | 0.099
CC(C)(C)NCC(O)c1ccccc1Cl (stereo not drawn) [Tulobuterol] | 71.9
OC(c1ccccc1)(c1ccccc1)C12CC[N+](CCOCc3ccccc3)(CC1)CC2 [Umeclidinium] | 0.00015
O=C(Nc1ccc(C[C@@H]2CC[C@H]([C@H](O)c3ccccc3)N2)cc1)[C@@H]1CCc2nccc(=O)n21 [Vibegron] | 5.32
OCc1cc([C@@H](O)CNCCCCCCOCCOCc2c(Cl)cccc2Cl)ccc1O [Vilanterol] | 6.1
CNCc1cc(-c2ccccc2F)n(S(=O)(=O)c2cccnc2)c1 [Vonoprazan] | 1.7
CN(C)CCOC1=Cc2ccccc2Sc2ccc(Cl)cc21 [Zotepine] | 0.554
